Molecular target: USP14 (Homo sapiens (Human), UniProt P54578)
Assay: Usp14 inhibition assay (Example 57B, B-series compounds)
Type: biochemical
Conditions: IC50 class; average value from a minimum of two experimental determinations
From the text: Example 57B: Usp14 Inhibition Assay
The IC50 values in the Table below represent the average value from a minimum of two experimental determinations.

USP14, sequence (P54578 whole entry, looked up): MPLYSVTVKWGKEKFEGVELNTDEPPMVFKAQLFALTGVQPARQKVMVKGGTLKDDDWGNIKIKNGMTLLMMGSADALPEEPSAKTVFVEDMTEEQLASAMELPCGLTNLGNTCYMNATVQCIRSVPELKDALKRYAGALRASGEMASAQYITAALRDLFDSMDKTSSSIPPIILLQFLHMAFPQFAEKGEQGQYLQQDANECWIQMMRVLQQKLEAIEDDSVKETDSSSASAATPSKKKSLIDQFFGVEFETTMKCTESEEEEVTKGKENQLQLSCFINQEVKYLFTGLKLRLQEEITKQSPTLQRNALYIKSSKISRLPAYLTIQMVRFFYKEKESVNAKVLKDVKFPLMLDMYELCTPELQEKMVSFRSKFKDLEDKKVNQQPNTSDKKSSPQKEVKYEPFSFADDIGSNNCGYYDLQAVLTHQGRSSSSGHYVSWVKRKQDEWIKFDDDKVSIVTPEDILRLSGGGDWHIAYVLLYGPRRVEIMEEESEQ

First: Cc1cc(C(=O)CN2[C@@H]3CC[C@@H]2CC(O)C3)c(C)n1-c1ccc(C#N)cc1 (stereo partly drawn) [Example 67B, 4-(3-(2-((1R,3s,5S)-3-hydroxy-8-azabicyclo[3.2.1]octan-8-yl)acetyl)-2,5-dimethyl-1H-pyrrol-1-yl)benzonitrile]
Second: Cc1cc(C(=O)CN2C3CCC2CC3)c(C)n1-c1ccc(C#N)cc1 [Example 63B, 4-(3-(2-(7-Azabicyclo[2.2.1]heptan-7-yl)acetyl)-2,5-dimethyl-1H-pyrrol-1-yl)benzonitrile]
The IC50 of the first is lower: 0.05 to 0.5 µM for the first, over 0.5 µM for the second. The first is the more potent here.

Compared with `Cc1cc(C(=O)CN2C3CCC2(CO)CC3)c(C)n1-c1ccc(C#N)cc1` [Example 126B, 4-(3-(2-(1-(Hydroxymethyl)-7-azabicyclo[2.2.1]heptan-7-yl)acetyl)-2,5-dimethyl-1H-pyrrol-1-yl)benzonitrile], `Cc1cc(C(=O)CN2C3CCC2(C(=O)O)CC3)c(C)n1-c1ccc(C#N)cc1` [Example 127B, 7-(2-(1-(4-Cyanophenyl)-2,5-dimethyl-1H-pyrrol-3-yl)-2-oxoethyl)-7-azabicyclo[2.2.1]heptane-1-carboxylic Acid] is higher in IC50: 0.05 to 0.5 µM for the first, over 0.5 µM for the second.

Compared with `Cc1c(C#N)c(C(=O)CN2C3CCC2[C@@H](O)C3)c(C)n1-c1ccc(C#N)cc1` (mixture of isomers) [Example 95B, (±)-1-(4-Cyanophenyl)-4-(2-((2R)-2-hydroxy-7-azabicyclo[2.2.1]heptan-7-yl)acetyl)-2,5-dimethyl-1H-pyrrole-3-carbonitrile], `Cc1c(Cl)c(C(=O)CN2C3CCC2[C@@H](O)C3)c(C)n1-c1ccc(C#N)cc1` (mixture of isomers) [Example 77B, (±)-4-(3-Chloro-4-(2-((2R)-2-hydroxy-7-azabicyclo[2.2.1]heptan-7-yl)acetyl)-2,5-dimethyl-1H-pyrrol-1-yl)benzonitrile] is lower in IC50: over 0.5 µM for the first, 0.05 to 0.5 µM for the second. The second is the more potent here.

Going from `Cc1c(C(=O)CN2C3CCC2[C@@H](O)C3)c(C(F)(F)F)c(C)n1-c1ccc(C#N)cc1` (mixture of isomers) [Example 79B, (±)-4-(3-(2-((2R)-2-Hydroxy-7-azabicyclo[2.2.1]heptan-7-yl)acetyl)-2,5-dimethyl-4-(trifluoromethyl)-1H-pyrrol-1-yl)benzonitrile] to `Cc1c(F)c(C(=O)CN2C3CCC2[C@@H](O)C3)c(C)n1-c1ccc(C#N)c(F)c1` (mixture of isomers) [Example 120B, (±)-2-Fluoro-4-(3-fluoro-4-(2-((2R)-2-hydroxy-7-azabicyclo[2.2.1]heptan-7-yl)acetyl)-2,5-dimethyl-1H-pyrrol-1-yl)benzonitrile], the IC50 falls from over 0.5 µM to under 0.05 µM. The second is the more potent here.

`Cc1c(C(=O)CN2C3CCC2CC3)cc(CCCCC#N)n1-c1ccc(Cl)cc1` [Example 31B, 5-(4-(2-(7-Azabicyclo[2.2.1]heptan-7-yl)acetyl)-1-(4-chlorophenyl)-5-methyl-1H-pyrrol-2-yl)pentanenitrile] and `Cc1c(C(=O)CN2C3CCC2CC3)cc(CC2CCS(=O)(=O)CC2)n1-c1ccc(Cl)cc1` [Example 25B, 2-(7-Azabicyclo[2.2.1]heptan-7-yl)-1-(1-(4-chlorophenyl)-5-((1,1-dioxidotetrahydro-2H-thiopyran-4-yl)methyl)-2-methyl-1H-pyrrol-3-yl)ethan-1-one] fall in the same range of IC50: 0.05 to 0.5 µM for the first, 0.05 to 0.5 µM for the second.

First: Cc1cc(C(=O)CN2[C@@H]3CC[C@H]2[C@H](C)[C@@H]3C)c(C)n1-c1ccc(C#N)cc1 [Example 138B, 4-(3-(2-((1R,2S,3R,4S)-2,3-Dimethyl-7-azabicyclo[2.2.1]heptan-7-yl)acetyl)-2,5-dimethyl-1H-pyrrol-1-yl)benzonitrile]
Second: Cc1cc(C(=O)CN2[C@@H]3CC[C@@H]2CC(O)C3)c(C)n1-c1ccc(C#N)cc1 (stereo partly drawn) [Example 66B, 4-(3-(2-((1R,3r,5S)-3-Hydroxy-8-azabicyclo[3.2.1]octan-8-yl)acetyl)-2,5-dimethyl-1H-pyrrol-1-yl)benzonitrile]
The IC50 of the first is higher: over 0.5 µM for the first, 0.05 to 0.5 µM for the second.

`Cc1c(C(=O)CN2C3CCC2CC3)cc(/C=C/CCS(C)(=O)=O)n1-c1ccc(C#N)cc1` [Example 35B, (E)-4-(3-(2-(7-Azabicyclo[2.2.1]heptan-7-yl)acetyl)-2-methyl-5-(4-(methylsulfonyl)but-1-en-1-yl)-1H-pyrrol-1-yl)benzonitrile] and `Cc1c(C(=O)CN2C3CCC2CC3)cc(/C=C\CCS(C)(=O)=O)n1-c1ccc(C#N)cc1` [Example 26B] cannot be ordered by IC50: under 0.05 µM for the first, under 0.05 µM for the second.

`Cc1cc(C(=O)CN2C3CCCC2CC3)c(C)n1-c1ccc(C#N)cc1` [Example 69B, 4-(3-(2-(8-Azabicyclo[3.2.1]octan-8-yl)acetyl)-2,5-dimethyl-1H-pyrrol-1-yl)benzonitrile] and `Cc1cc(C(=O)CN2[C@@H]3CC[C@@H]2CC(O)(C(F)(F)F)C3)c(C)n1-c1ccc(C#N)cc1` (stereo partly drawn) [Example 75B, 4-(3-(2-((1R,3s,5S)-3-Hydroxy-3-(trifluoromethyl)-8-azabicyclo[3.2.1]octan-8-yl)acetyl)-2,5-dimethyl-1H-pyrrol-1-yl)benzonitrile] fall in the same range of IC50: 0.05 to 0.5 µM for the first, 0.05 to 0.5 µM for the second.

First: Cc1c(C(=O)CN2[C@@H]3CC[C@H]2[C@@H](O)C3)cc(-c2nccs2)n1-c1ccc(C#N)cc1 (racemic) [Example 146B, (±)-4-(3-(2-((1R,2R,4S)-2-Hydroxy-7-azabicyclo[2.2.1]heptan-7-yl)acetyl)-2-methyl-5-(thiazol-2-yl)-1H-pyrrol-1-yl)benzonitrile]
Second: Cc1nc(Cc2cc(C(=O)CN3C4CCC3[C@@H](O)C4)c(C)n2-c2ccc(C#N)cc2)cs1 (mixture of isomers) [Example 41B, (±)-4-(3-(2-((2R)-2-Hydroxy-7-azabicyclo[2.2.1]heptan-7-yl)acetyl)-2-methyl-5-((2-methylthiazol-4-yl)methyl)-1H-pyrrol-1-yl)benzonitrile]
The IC50 of the first is higher: over 0.5 µM for the first, under 0.05 µM for the second. The second is the more potent here.

`Cc1c(C(=O)CN2C3CCC2CC3)cc(/C=C/CCS(C)(=O)=O)n1-c1ccc(Cl)cc1` [Example 34B, (E)-2-(7-Azabicyclo[2.2.1]heptan-7-yl)-1-(1-(4-chlorophenyl)-2-methyl-5-(4-(methylsulfonyl)but-1-en-1-yl)-1H-pyrrol-3-yl)ethan-1-one] and `Cc1c(C(=O)CN2[C@@H]3CC[C@@H]2CC(O)C3)cc(CCCCS(C)(=O)=O)n1-c1ccc(C#N)cc1` (stereo partly drawn) [Example 7B, 4-(3-(2-((1R,3r,5S)-3-Hydroxy-8-azabicyclo[3.2.1]octan-8-yl)acetyl)-2-methyl-5-(4-(methylsulfonyl)butyl)-1H-pyrrol-1-yl)benzonitrile] cannot be ordered by IC50: under 0.05 µM for the first, under 0.05 µM for the second.

`Cc1c(C(=O)CN2[C@@H]3CC[C@H]2[C@@H](O)C3)cc(C2CCCCC2)n1-c1ccc(C#N)cc1` (racemic) [Example 111B, (±)-4-(5-Cyclohexyl-3-(2-((1R,2R,4S)-2-hydroxy-7-azabicyclo[2.2.1]heptan-7-yl)acetyl)-2-methyl-1H-pyrrol-1-yl)benzonitrile] and `Cc1c(C(=O)CN2[C@@H]3CC[C@H]2[C@@H](O)C3)cc(C2CC(F)(F)C2)n1-c1ccc(C#N)cc1` (racemic) [Example 131B, (±)-4-(5-(3,3-Difluorocyclobutyl)-3-(2-((1R,2R,4S)-2-hydroxy-7-azabicyclo[2.2.1]heptan-7-yl)acetyl)-2-methyl-1H-pyrrol-1-yl)benzonitrile] fall in the same range of IC50: 0.05 to 0.5 µM for the first, 0.05 to 0.5 µM for the second.

`Cc1c(C(=O)CN2[C@@H]3CC[C@H]2[C@@H](O)C3)cc(CCCC2COC2)n1-c1ccc(C#N)cc1` (racemic) [Example 22B, (±)-4-(3-(2-((1R,2R,4S)-2-Hydroxy-7-azabicyclo[2.2.1]heptan-7-yl)acetyl)-2-methyl-5-(3-(oxetan-3-yl)propyl)-1H-pyrrol-1-yl)benzonitrile] and `Cc1c(C(=O)CN2C3CCC2[C@@H](O)C3)cc(CCCC2CC(C)(C)OC2=O)n1-c1ccc(C#N)cc1` (mixture of isomers) [Example 51B, (±)-4-(5-(3-(5,5-Dimethyl-2-oxotetrahydrofuran-3-yl)propyl)-3-(2-((1R,2R,4S)-2-hydroxy-7-azabicyclo[2.2.1]heptan-7-yl)acetyl)-2-methyl-1H-pyrrol-1-yl)benzonitrile] cannot be ordered by IC50: under 0.05 µM for the first, under 0.05 µM for the second.

`Cc1c(C(=O)CN2[C@@H]3CC[C@H]2[C@@H](C)C3)cc(C#N)n1-c1ccc(C#N)cc1` (racemic) [Example 136B, (±)-1-(4-Cyanophenyl)-5-methyl-4-(2-((1R,2R,4S)-2-methyl-7-azabicyclo[2.2.1]heptan-7-yl)acetyl)-1H-pyrrole-2-carbonitrile] and `Cc1c(C(=O)CN2[C@@H]3CC[C@H]2[C@@H](O)C3)cc(/C=C/CC(C)(C)C#N)n1-c1ccc(C#N)cc1` (racemic) [Example 15B, (±)-4-(5-((E)-4-Cyano-4-methylpent-1-en-1-yl)-3-(2-((1R,2R,4S)-2-hydroxy-7-azabicyclo[2.2.1]heptan-7-yl)acetyl)-2-methyl-1H-pyrrol-1-yl)benzonitrile] cannot be ordered by IC50: under 0.05 µM for the first, under 0.05 µM for the second.

Going from `Cc1cc(C(=O)CN2C3CC4CC(C3)CC2C4)c(C)n1-c1ccc(C#N)cc1` [Example 80B, 4-(3-(2-((5r,7r)-2-Azaadamantan-2-yl)acetyl)-2,5-dimethyl-1H-pyrrol-1-yl)benzonitrile] to `Cc1c(C(=O)CN2C3CCC2C(O)C3)cc([C@H](C)C2CCC2)n1-c1ccc(C#N)cc1` (stereo in doubt) [Example 151B, 4-(5-((R)-1-Cyclobutylethyl)-3-(2-((2R)-2-hydroxy-7-azabicyclo[2.2.1]heptan-7-yl)acetyl)-2-methyl-1H-pyrrol-1-yl)benzonitrile], the IC50 rises from under 0.05 µM to over 0.5 µM. The first is the more potent here.

Compared with `Cc1c(F)c(C(=O)CN2C3CCC2CC3)c(C)n1-c1ccc(C#N)cc1` [Example 104B, 4-(3-(2-((1s,4s)-7-Azabicyclo[2.2.1]heptan-7-yl)acetyl)-4-fluoro-2,5-dimethyl-1H-pyrrol-1-yl)benzonitrile], `Cc1nccn1C/C=C/c1cc(C(=O)CN2C3CCC2[C@@H](O)C3)c(C)n1-c1ccc(C#N)cc1` (mixture of isomers) [Example 6B, (±)-4-(3-(2-((2R)-2-Hydroxy-7-azabicyclo[2.2.1]heptan-7-yl)acetyl)-2-methyl-5-((E)-3-(2-methyl-1H-imidazol-1-yl)prop-1-en-1-yl)-1H-pyrrol-1-yl)benzonitrile] is lower in IC50: 0.05 to 0.5 µM for the first, under 0.05 µM for the second.

`Cc1c(C(=O)CN2C3CCC2[C@@H](O)C3)cc(CCCCS(C)(=O)=O)n1-c1ccc(C#N)cc1` (mixture of isomers) [Example 8B, (±)-4-(3-(2-((1R,2R,4S)-2-Hydroxy-7-azabicyclo[2.2.1]heptan-7-yl)acetyl-2-methyl-5-(4-(methylsulfonyl)butyl)-1H-pyrrol-1-yl)benzonitrile] gave an IC50 of under 0.05 µM.
